From US20100016213A1, “USE OF A DITERPENOID COMPOUND FOR TREATING DIABETES” (National Taiwan University, priority 2008, published 2010)

Columns and labels:
Assay type in all cases: in vivo
[1] = test system: STZ-diabetic mice (IDDM); assay: Plasma insulin levels before and after treatment (Insulin ELISA), STZ-diabetic mice; conditions: for Plasma insulin, Pre-treatment: before treatment; for Plasma insulin, post-treatment: one hour after treatment
Protocol: (§1) Normal mice, STZ-induced diabetic mice, and diet-induced diabetic mice were administered with a vehicle control, borapetoside A (5.0 mg/kg), borapetoside C (at various doses), glibenclamide (5.0 mg/kg) or metformin (500 mg/kg) by intraperitoneal injection. These mice were examined for their blood insulin levels before and one hour after treatment, using the Insulin(Rat) ELISA kit obtained from Penisula Lab. Inc., San Carlos, Calif., USA.

[2] = test system: normal mice; assay: Plasma insulin levels before and after treatment (Insulin ELISA), normal mice; conditions: 5.0 mg/kg i.p.; for Plasma insulin, Pre-treatment: before treatment; for Plasma insulin, post-treatment: one hour after treatment
Protocol: as §1

[3] = test system: Diet-induced diabetic (NIDDM) mice; assay: Plasma insulin levels before and after treatment (Insulin ELISA), diet-induced diabetic mice; conditions: 5.0 mg/kg i.p.; for Plasma insulin, Pre-treatment: before treatment; for Plasma insulin, post-treatment: one hour after treatment
Protocol: as §1

[4] = test system: STZ-induced diabetic mice; assay: Lowering plasma glucose level, intraperitoneal injection, STZ-induced diabetic mice (type I diabetes model); conditions: one hour after administration
Protocol: (§2) Normal and streptozotocin (STZ)-induced diabetic mice were administered with borapetoside A (5.0 mg/kg), borapetoside C (5.0 mg/kg), glibenclamide (5.0 mg/kg), metformin (500.0 mg/kg), or a vehicle control via intraperitoneal injection. STZ-induced diabetic mice are a well-known mouse model of type I diabetes (insulin dependent). See, e.g., Liu I M, et al., Neuroscience Letters 2001; 307: 81-84. Glibenclamide and metformin serve as two positive controls in this study.
(§3) The plasma glucose levels of the treated mice were determined before and one hour after administration. The activity of lowering plasma glucose levels (AL) is calculated following the formula: […]
(§4) Borapetoside C was administered to normal mice at 0.1, 1.0, 3.0, and 5.0 mg/kg and to STZ-diabetic mice at 0.1, 1.0, 3.0, and 5.0 mg/kg. The plasma glucose levels of the treated mice were examined before and after treatment.

[5] = test system: normal mice; assay: Lowering plasma glucose level, intraperitoneal injection, normal mice; conditions: normal mice, one hour after administration
Protocol: as §2, §3, §4

[6] = test system: DIO-induced diabetic mice; assay: Lowering plasma glucose level, intraperitoneal injection, diet-induced obesity diabetic mice (type II diabetes model); conditions: one hour after administration
Protocol: Normal and diet-induced obesity diabetic mice (“DIO-induced diabetic mice) were administered with borapetoside A (5.0 mg/kg), borapetoside C (5.0 mg/kg), glibenclamide (5.0 mg/kg), metformin (500.0 mg/kg), or a vehicle control via intraperitoneal injection. DIO-induced diabetic mice are a well-known mouse model of type II diabetes (non-insulin dependent). See Liu et al., J Mol. Endocrinol. 2008.
The plasma glucose levels of the treated mice were determined before and one hour after administration. The activities of these compounds for lowering plasma glucose levels were calculated as described above.
Borapetoside C was administered to DIO-induced diabetic mice at 0.1, 1.0, 3.0, and 5.0 mg/kg and the plasma glucose levels were examined before and after administration. The basal plasma glucose concentration in diet-induced diabetic mice (untreated) was 174.6±7.7 mg/dL. One hour after treatment, the plasma glucose levels in mice treated with vehicle control, 0.1 mg/kg borapetoside C, 1.0 mg/kg borapetoside C, 3.0 mg/kg borapetoside C, and 5.0 mg/kg borapetoside C were 172.5±10.9 mg/dL, 170.5±6.8 mg/dL, 127.9±6.0 mg/dL, 121.3±4.3 mg/dL and 119.9±4.6 mg/dL, respectively.

[7] = test system: normal mice; assay: Lowering plasma glucose levels via oral administration, normal mice; conditions: oral 10.0 mg/kg, sixty minutes after treatment, mean ± SEM, six animals
Protocol: (§5) Normal, STZ-induced diabetic mice, and diet-induced diabetic mice were administered orally with 10.0 mg/kg borapetoside C, glibenclamide or metformin as a positive control, and a vehicle control. The plasma glucose levels of the treated mice were determined before and sixty minutes after treatment and the results thus obtained were shown in Table 3 below.

[8] = test system: Diet-induced diabetic mice (NIDDM); assay: Lowering plasma glucose levels via oral administration, diet-induced diabetic mice; conditions: oral 10.0 mg/kg, sixty minutes after treatment, mean ± SEM, six animals
Protocol: as §5

[9] = test system: Normal ICR mice; assay: Intraperitoneal glucose tolerance test (IPGTT), normal ICR mice; conditions: borapetoside C 5.0 mg/kg
Protocol: (§6) Normal ICR mice and DIO-induced diabetic mice, treated with borapetoside C (5.0 mg/kg), a vehicle control, or glibenclamide (positive control), were subjected to an intraperitoneal glucose tolerance test (IPGTT) as described in Lamont et al., Diabetes 2008; 57: 190-198. More specifically, glucose (2.0 mg/g body weight) was administered via IP injection to normal and DIO mice and blood samples were drawn from the treated mice before and 30, 60, 120, and 150 min after glucose administration for examination of glucose levels.
In normal mice treated with borapetoside C, the vehicle control, and glibenclamide, the basal plasma glucose concentrations were 106.8±4.7 mg/dL, 114.7±4.6 mg/dL, and 104.9±3.1 mg/dL, respectively. Thirty minutes after intraperitoneal glucose injection, the plasma glucose concentration was elevated to 346.2±14.7 mg/dL in vehicle-treated mice, to 292.9±10.9 mg/dL in borapetoside C-treated mice, or to 273.4±13.6 mg/dL in glibenclamide-treated mice.

[10] = test system: DIO-induced diabetic mice; assay: Intraperitoneal glucose tolerance test (IPGTT), DIO-induced diabetic mice; conditions: diet-induced diabetic mice, borapetoside C 5.0 mg/kg
Protocol: as §6
In diet-induced diabetic mice treated with borapetoside C, the vehicle control, and glibenclamide, the basal plasma glucose concentrations were 181.6±12.3 mg/dL, 183.1±2.9 mg/dL, and 185.3±7.7 mg/dL, respectively. Thirty minutes after intraperitoneal glucose injection, the plasma glucose concentration was elevated to 405.6±8.9 mg/dL in vehicle-treated mice, to 343.5±11.2 mg/dL in borapetoside C-treated mice, or to 339.1±15.4 mg/dL in glibenclamide-treated mice.

[11] = test system: STZ-diabetic mice (IDDM); assay: Lowering plasma glucose levels via oral administration, STZ-diabetic mice; conditions: oral 500.0 mg/kg, sixty minutes after treatment, mean ± SEM, six animals
Protocol: as §5

[12] = test system: DIO-induced diabetic mice(NIDDM); assay: Glycogen content in skeletal muscle, DIO-induced diabetic mice; conditions: 30 minutes after injection
Protocol: (§7) Normal, STZ-induced diabetic, and DIO-induced diabetic mice were intraeritoneally injected with borapetoside C (5 mg/kg) and Actrapid (0.5 IU/kg; a short-acting insulin provided by Novo Nordisk) or metformin (500 mg/kg). Their glycogen contents in skeletal muscle were determined 30 minutes after injections.

[13] = test system: liver phosphoenolpyruvate carboxykinase (PEPCK); assay: Liver PEPCK levels by western blot in STZ-induced mice; conditions: borapetoside C 5.0 mg/kg, twice per day for 7 days, insulin dose not given
Protocol: To characterize the effect of borapetoside C on liver glucose utilization, levels of liver phosphoenolpyruvate carboxykinase (PEPCK) were examined by western blot analysis in STZ-induced mice treated with borapetoside C (5.0 mg/kg, twice per day for 7 days), insulin, or a vehicle control.

[14] = test system: normal mice; assay: Insulin sensitivity: plasma glucose reduction with insulin plus borapetoside C or vehicle, normal mice; conditions: thirty minutes after insulin
Protocol: (§8) The effect of borapetoside C on insulin sensitivity was tested following the method described in Liu, et al., Clinical and Experimental Pharmacology and Physiology 2005; 32: 649-654. Normal mice (n=6), STZ-induced diabetic mice (n=5), and DIO-induced diabetic mice (n=7) were treated with insulin at various doses (i.e., 0.1 IU/kg, 0.5 IU/kg, and 1.0 IU/kg) together with either borapetoside C (0.1 mg/kg) or a vehicle control. Their plasma glucose levels were examined before and thirty minutes after insulin administration. The activity of lowering plasma glucose levels (AL) was calculated following the formula described in Example 2 above.

[15] = test system: DIO-induced diabetic mice; assay: Insulin sensitivity: plasma glucose reduction with insulin plus borapetoside C or vehicle, DIO-induced diabetic mice; conditions: thirty minutes after insulin
Protocol: as §8

[16] = test system: STZ-induced diabetic mice; assay: Insulin sensitivity: plasma glucose reduction with insulin plus borapetoside C or vehicle, STZ-induced diabetic mice; conditions: thirty minutes after insulin
Protocol: as §8

[17] = test system: STZ-diabetic mice(IDDM); assay: Glycogen content in skeletal muscle, STZ-diabetic mice; conditions: 0.5 IU/kg i.p., 30 minutes after injection
Protocol: as §7

[18] = test system: normal mice; assay: Glycogen content in skeletal muscle, normal mice; conditions: 0.5 IU/kg i.p., 30 minutes after injection
Protocol: as §7

[19] = 5.0 mg/kg intraperitoneal injection
[20] = 500.0 mg/kg intraperitoneal injection
[21] = Insulin 0.1 IU/kg together with Vehicle
[22] = Insulin 0.5 IU/kg together with Vehicle
[23] = Insulin 1.0 IU/kg together with Vehicle

With `C[C@@]12C[C@@H](c3ccoc3)OC(=O)[C@@H]1C[C@@H]1OC(=O)[C@@]3(O)[C@@H](O[C@@H]4O[C@H](CO)[C@@H](O)[C@H](O)[C@H]4O)CC[C@@H]2[C@@]13C` [borapetoside A] the “Plasma insulin, Pre-treatment” value ([1]; 5.0 mg/kg i.p.) was 16.0 ± 4.1 pmol/L, the “Plasma insulin, post-treatment” value ([1]; 5.0 mg/kg i.p.) was 18.7 ± 8.4 pmol/L and the “Plasma insulin, Pre-treatment” value [2] was 56.0 ± 2.8 pmol/L. For the same compound, the “Plasma insulin, post-treatment” value [2] was 117.6 ± 10.8 pmol/L, the “Plasma insulin, Pre-treatment” value [3] was 106.6 ± 14.6 pmol/L and the “Plasma insulin, post-treatment” value [3] was 173.8 ± 26.9 pmol/L. The “Activities of Lowering Plasma Glucose Levels (AL)” value [4, 19] was 54.3 ± 6.3%, the “Activities of Lowering Plasma Glucose Levels (AL)” value [5, 19] was 49.4 ± 4.8% and the “AL (activity of lowering plasma glucose levels)” value [6, 19] was 29.7±6.1%.
In the case of `COc1ccc(Cl)cc1C(=O)NCCc1ccc(S(=O)(=O)NC(=O)NC2CCCCC2)cc1` [glibenclamide, reference compound], the “Activity of lowing plasma glucose levels (%)” value (“Activity … (%)” below) [7] is reported as 25.9 ± 3.5 %, the “Plasma insulin, Pre-treatment” value [2] is reported as 50.8 ± 3.6 pmol/L and the “Plasma insulin, post-treatment” value [2] is reported as 149.5 ± 15.0 pmol/L. For the same compound, the “Plasma insulin, Pre-treatment” value [3] was 119.3 ± 9.6 pmol/L, the “Plasma insulin, post-treatment” value [3] was 197.0 ± 18.8 pmol/L and the “Activities of Lowering Plasma Glucose Levels (AL)” value [4, 19] was 3.2 ± 1.9%. The “Activity … (%)” value [8] was 34.9 ± 4.0 %, the “Activities of Lowering Plasma Glucose Levels (AL)” value [5, 19] was 19.3 ± 1.6% and the “basal plasma glucose concentration (IPGTT)” value ([9]; before glucose injection) was 104.9 ± 3.1 mg/dL. The “plasma glucose concentration thirty minutes after intraperitoneal glucose injection (IPGTT)” value ([9]; glucose 2.0 mg/g body weight IP, vehicle 346.2±14.7) was 273.4 ± 13.6 mg/dL, the “basal plasma glucose concentration (IPGTT)” value ([10]; before glucose injection) was 185.3 ± 7.7 mg/dL and the “plasma glucose concentration thirty minutes after intraperitoneal glucose injection (IPGTT)” value ([10]; glucose 2.0 mg/g body weight IP, vehicle 405.6±8.9) was 339.1 ± 15.4 mg/dL. The “AL (activity of lowering plasma glucose levels)” value [6, 19] was 25.8±2.1%.
`CN(C)C(=N)N=C(N)N` [metformin, reference compound] was tested, and the “Plasma insulin, post-treatment” value ([1]; 500 mg/kg i.p.) was 15.1 ± 1.5 pmol/L, the “Plasma insulin, Pre-treatment” value [1] was 13.5 ± 1.1 pmol/L and the “Activities of Lowering Plasma Glucose Levels (AL)” value ([4]; intraperitoneal injection) was 34.1 ± 5.5%. The “Activities of Lowering Plasma Glucose Levels (AL)” value [5, 20] was 20.0 ± 2.5%, the “Activity … (%)” value [11] was 18.1 ± 1.9 % and the “Glycogen content (μmol/g wet weight)” value ([12]; 500 mg/kg i.p.) was 23.5 ± 0.9 μmol/g wet weight. For the same compound, the “AL (activity of lowering plasma glucose levels)” value [6, 20] was 30.7±0.6%.
For “Insulin: Actrapid, a short-acting insulin provided by Novo Nordisk [reference compound]”, the “liver PEPCK levels versus vehicle control-treated mice (western blot)” value [13] was “much lower”, the “AL (%)” value [14, 21] was 14.6 ± 0.8% and the “AL (%)” value [14, 22] was 37.5 ± 1.1%. For the same compound, the “AL (%)” value [14, 23] was 56.8 ± 1.9%, the “AL (%)” value [15, 21] was 19.5 ± 1.5% and the “AL (%)” value [15, 22] was 27.5 ± 2.6%. For the same compound, the “AL (%)” value [15, 23] was 32.0 ± 1.1%, the “AL (%)” value [16, 21] was 8.7 ± 1.6% and the “AL (%)” value [16, 22] was 11.5 ± 0.6%. The “AL (%)” value [16, 23] was 24.0 ± 1.3%, the “Glycogen content (μmol/g wet weight)” value [17] was 30.0 ± 1.0 μmol/g wet weight and the “Glycogen content (μmol/g wet weight)” value ([12]; 0.5 IU/kg i.p.) was 20.2 ± 0.6 μmol/g wet weight. The “Glycogen content (μmol/g wet weight)” value [18] was 30.2 ± 2.0 μmol/g wet weight.
